Assay results from article PMC2633172 (The FASEB Journal, 2009).
Blank lines part the entries; values can stand above or below the molecule they belong to. Bridge positions count the residues as written; N and C are the ends. Ends that are not written are not given here. * marks the point of attachment. Biotin = O=C1N[C@H]2[C@H](CS[C@H]2CCCCC(=O)*)N1

What was measured:
[1] = test system: γ-IFN stimulated U937 cells; assay: Inhibition of superoxide burst triggered by bead-peptide 33 complexes; type: cell-based, human; settings: soluble peptide; submaximal concentration of bead-peptide 33 complexes
[2] = test system: γ-IFN stimulated U937 cells; assay: Phagocytosis of fluorescent bead complexes by flow cytometry; type: cell-based, human; settings: FITC-labeled bead complexes
[3] = target: Human FcγRI extracellular domain (human, UniProt P12314 16-292); assay: AlphaScreen or HTRF
Human FcγRI extracellular domain, sequence (P12314 16-292): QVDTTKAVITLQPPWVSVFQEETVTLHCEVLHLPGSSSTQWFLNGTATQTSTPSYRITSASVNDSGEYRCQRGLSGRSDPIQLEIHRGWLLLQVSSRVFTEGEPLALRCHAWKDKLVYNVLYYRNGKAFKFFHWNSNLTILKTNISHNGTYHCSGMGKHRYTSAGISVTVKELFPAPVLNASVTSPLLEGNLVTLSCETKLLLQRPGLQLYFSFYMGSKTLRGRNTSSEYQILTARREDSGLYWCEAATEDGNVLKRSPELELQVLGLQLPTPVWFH

Molecule: AQTDTSLMLPLLGSDEE [peptide 22 S4S13]
- ability to prevent receptor-mediated functions triggered by multimeric peptide 33 [1]: only weakly able or unable

Molecule: TDT C LMLPLLLG C DEE (disulfide) [peptide 22]
- internalized fluorescence relative to bead-IgG1 complexes ([2]; 2 h at 37°C, trypan blue quench, 10,000 cells): ≤ 2 fold
- bead-peptide signal intensity in the presence of IgG1 ([2]; with IgG1 (67 μM)): reduced to background

- binding result [3]: binds
Molecule: H-AQVNSCLLLPNLLGCGDDK(Biotin) (disulfide 6-15 (inferred)) [cyclic peptide 33]

- binding result [3]: binds
Molecule: H-AQKDPCTRWAMLLGCDGEK(Biotin) (disulfide 6-15 (inferred)) [cyclic peptide 30]
